“Also recorded” adds a separate entry of the source.
Experiments:
[1] = tested on: tissue originating from patients with peritoneal carcinomatosis; assay: In vitro collagenase treatment of patient tumor tissue fragments; assay type: cell-based, human; settings: for cells released from tissues: culture at 96 hours
Protocol: After obtaining authorization from the Committee for Research with Medicinal Products (PIC 75/2016_FJD) of Fundación Jiménez Díaz, the tissue originating from patients with peritoneal carcinomatosis who signed the consent was collected. Tissue fragments were included in multiwell plates and treated with 35 U/mL of collagenase for 30 minutes or for a period of 24 hrs, the cultures were then washed and cells obtained from the enzyme treatment were analyzed. The idea was to check at different times if mesothelial cells were obtained alone or tumor cells were obtained as well. FIG. 1.

[2] = tested on: peritoneal carcinomatosis (DHD cells); assay: Adjusting the dose of collagenase as co-adjuvant in rats with carcinomatosis; assay type: in vivo, rat; settings: 10 minutes, 37° C.
Protocol: In this sense, after the inoculation of DHD cells in all the animals, and therefore the induction of solid tumors in the peritoneum (peritoneal carcinomatosis), the optimum dose of collagenase in terms of safety for use thereof as a co-adjuvant for or enhancer of chemotherapy treatment with mitomycin C in various work groups was determined: • Control group: washed only with Ringer's lactate. The mesoderm readily separates and washing is non-hematic. Compact omentum. • Group 1: 370 U/mL of collagenase. Hematic washing liquid, destruction of the omentum and mesoderm. Tumor fragments in the washing liquid. • Group 2: 148 U/mL of collagenase. Slightly hematic washing liquid, readily separable omentum and mesoderm. Solid tumor fragments are observed in the washing liquid. • Group 3: 74 U/mL of collagenase. Non-hematic washing liquid, readily separable omentum and mesoderm. Few implants are observed in the washing liquid but the accessibility of the tumor implants in the mesoderm and omentum is absolute. • Group 4: 37 U/mL of collagenase. Non-hematic washing liquid, readily separable omentum and mesoderm. No tumor implants observed in the washing liquid, but they are seen to be completely exposed in both the mesoderm and omentum.
The surgical procedures during this phase consisted of a first method of peritoneal cancer induction in which DHD cells were injected into the peritoneum and 6-8 weeks were allowed to elapse until the checking for the existence of tumor masses in the peritoneum by means of abdominal palpation, and a second method of treatment in which, after giving the animals inhalation anesthesia, the abdominal cavity was exposed by means of a longitudinal incision of the abdomen, the peritoneal cavity filled with the collagenase solution at the different concentrations to be tested at 37° C.

[3] = tested on: abdominal organs and peritoneum; assay: Survival and necropsy of healthy rats after peritoneal washing (groups A, B); settings: group A, collagenase 37 U/mL; 1 died after surgery due to evisceration
From the text: During this phase, a series of survival experiments were established with various work groups and subgroups to learn about the co-adjuvant or enhancing role of collagenase in the treatment of peritoneal tumors with chemotherapeutic agents such as mitomycin C:
Each group initially consisted of 6 rats (2×3). In the initial design, 3 animals were sacrificed after 15 days and the rest were left until the conditions of the animals required them to be sacrificed (subcutaneous tumor growth >0.5 cm in diameter) or a maximum of 2 months.

[4] = tested on: mutated KRAS oncogene; assay: Digital PCR of KRAS in plasma; assay type: in vivo, rat; settings: plasma
Protocol: (§1) The procedure was performed 2 times in the TCQ group, the first time with collagenase and after 2 minutes peritoneal washing with mitomycin C at the different concentrations to be tested was repeated. […] Blood was also collected from all the animals before sacrificing them, the blood was processed within the hour following its extraction to obtain plasma and to analyze, on one hand, the existence of the mutated KRAS oncogene (mutation in codon 12 of exon 1 expressed by DHD cells), and on the other hand the existence of collagenase traces or residues in blood after the peritoneal washes. A digital PCR was used for the KRAS oncogene localization study. For the collagenase trace study, the anonymized samples were sent to Lyposmol laboratories for the performance of specific anti-MMP-1 and anti-MMP-2 ELISAS.
To analyze the presence of mutated KRAS in the blood of the different groups by means of digital PCR, DNA was extracted from at least 2 ml of plasma/group by means of the QlAamp Circulating Nucleic Acid kit according to the manufacturer's data and the results were those listed in Table 4.

[5] = tested on: MMP-2; assay: ELISA for collagenase residues in blood, anti-MMP-2; assay type: in vivo, rat; settings: after treatment and the follow-up period, all animals
Protocol: as §1

[6] = tested on: peritoneal adhesions (polypropylene mesh); assay: Peritoneal adhesion model group 2 (4 large meshes): adhesion tear test; assay type: in vivo, rat; settings: group 2, blind study, 0.05%; PBS control 325.76
Protocol: About one month later, intervention is performed on 6 additional 6-week old Wistar rats belonging to a second group (Group II). After inhalation anesthesia with Forane, the animal being shaved, and aseptic measures being implemented, laparotomy is performed with the implantation of 4 polypropylene meshes in the abdominal cavity, 2 on each side of the midline. Prior to implantation, the mesh is wetted with pss.
Secondly, experiments were performed on the rats belonging to group 2. The rats in this group were operated on, divided into two groups with 3 rats each, where a first group received 0.05% collagenase and the other placebo (PBS). After that they were subjected to an adhesion tear test, measuring the maximum pressure and the curve at which the adhesion tore. To that end, an adhesion tear measurement system was used which consisted of a high-precision digital pressure gauge that measured the pressure of a closed and rigid system with three outlets. One was a manual pressure pump, the other one was a piston with linear mobility to which clamps for pulling are fitted and which takes pressure away from the pressure gauge. The pressure needed to cause the tear of the adhesions generated in the collagenase group vs. control group was measured with this system.

[7] = tested on: peritoneal tissues; assay: Safety, histology and biochemistry in the adhesion model
Protocol: The concentration of collagenase used was 0.05% in PBS, with an application time of 20 min, in a volume of 20 ml, and at a temperature of 37° C. in a thermal blanket and with prior tempering of the drug.
Blood was drawn from all the rats by intracardiac puncture for biochemistry and cytokines.

[8] = tested on: peritoneal tissues; assay: First tests of peritoneal washing with collagenase on mouse (fine-tuning); settings: for necropsy findings: mice
Protocol: Six 5-week old double knock-out female mice (LIPDKO), from which the lipocalin-2 gene (which affects neutrophil recruitment) and the ApoE gene (which makes it more probable for the mice to develop atherosclerosis) have been eliminated, were used. […] Each concentration was injected to 2 mice according to their weight.
Cells obtained from washing which grew in culture dishes as well as the morphology of the peritoneal tissues after washing at different concentrations were analyzed.
Once the enzyme dose was selected, the actuation time was determined in the same manner and on the same model by means of tests from 40, 30, 20, 10, and 5 minutes. Throughout this fine-tuning method, the washing liquid was collected and cultured in a complete medium to analyze the cells obtained; different organs of the animals were also collected at the same time to check for the existence at any time (concentration/time) of any organ damage and to check the condition of the peritoneal tissues.

[9] = tested on: peritoneal carcinomatosis (DHD cells); assay: Phase I fine-tuning of collagenase peritoneal washing on rats with peritoneal carcinomatosis
Protocol: For the development of the “in vivo” model, carcinomatosis was caused in 6 BDIX rats, treatment was proposed after 4 weeks. The treatment consisted of using different concentrations (370 U/mL, 2×148 U/mL, 74 U/mL, 37 U/mL, 0) of collagenase by means of peritoneal washing and it was performed in an open system by means of using a perfusion pump on 3 animals and without using any perfusion pump on 3 other animals (FIG. 3). […] The method for peritoneal washing consisted of, after giving the animals inhalation anesthesia, exposing the abdominal cavity with a longitudinal incision and filling the peritoneal cavity with collagenase diluted to the different concentrations mentioned above. Continuous washing of the peritoneum (only with Ringer's lactate) was then performed; the animals were chosen randomly in each case and treatment lasted for 10 minutes in all the animals.
Washed tissue samples as well as organs were collected for histological studies in all cases (FIG. 4).

## Collagenase
[1]; 35 U/mL
  effect of collagenase on tumor tissues in vitro: breaks the edges of the tissues, releasing mesothelial cells and limiting tumor vascularization
[1]; in vitro
  enzyme time beyond which tissues become damaged and viability of extracted cells is inhibited: exceeding 45 minutes
[1]; tissues digested for 30 minutes
  cells released from tissues: mesothelial cells released by collagenase
[1]; tissues digested for 24 hours
  cells released from tissues: release of cells with tumor morphology and highly refringent mesothelial cells
[2]; Group 1: 370 U/mL
  washing liquid, omentum, mesoderm and tumor implants after washing: Hematic washing liquid, destruction of the omentum and mesoderm. Tumor fragments in the washing liquid.
[2]; Group 2: 148 U/mL
  washing liquid, omentum, mesoderm and tumor implants after washing: Slightly hematic washing liquid, readily separable omentum and mesoderm. Solid tumor fragments are observed in the washing liquid.
[2]; Group 3: 74 U/mL
  washing liquid, omentum, mesoderm and tumor implants after washing: Non-hematic washing liquid, readily separable omentum and mesoderm. Few implants are observed in the washing liquid but the accessibility of the tumor implants in the mesoderm and omentum is absolute.
[2]; Group 4: 37 U/mL
  washing liquid, omentum, mesoderm and tumor implants after washing: Non-hematic washing liquid, readily separable omentum and mesoderm. No tumor implants observed in the washing liquid, but they are seen to be completely exposed in both the mesoderm and omentum.
[3]
  survival: 4 out of 5
[4]; group A (healthy rats, collagenase 37 U/mL)
  Mutated KRAS event no.: 0
[4]; group F (DHD + collagenase 37 U/mL)
  Mutated KRAS event no.: 1
[5]
  collagenase residues in blood, MMP-2 ELISA: negative
[6]
  adhesion tear pressure: 188.26 millibar
[7]; 37 mg/Kg for 20 minutes at 37° C. as a peritoneal washing, murine model
  release of adhesions (final conclusion): favors the release of adhesions
[7]; 0.05% in PBS, 20 min, 20 ml, 37° C.
  other relevant finding upon application of the treatment: pancreatic reaction
[7]; 0.05%, vigorous washing at 37° C. for 20 minutes, murine model
  safety of intraperitoneal application: safe for intraperitoneal application in a murine model, without associated mortality
[7]; 2 months after the use of drug or PBS
  analysis of the models at euthanasia, drug vs PBS: did not show any significant differences; also recorded: fewer adhesions did subjectively appear
[7]; animals with small or large meshes, peritoneal washing with collagenase
  histological study of tissues: are not affected
[7]; both study groups
  amylase: increases in both study groups
[7]; serial tests, immediately and at different points of control after the intervention
  biochemical or hematologic parameters: without finding significant differences with the control groups
[8]; mice 5 and 6, highest doses of collagenase
  clinical observations half an hour after administration: lethargic, exhibited signs of pain and a very reduced response to handling; also recorded: the abdominal wall had become detached
[8]; mice with the highest doses of collagenase
  mortality: died within one hour
[8]; 17.5 U/mL and 8.75 U/mL (one mouse each line)
  necropsy findings: somewhat hematic abdominal wall that has experienced the least thinning; also recorded: abdominal wall with a normal appearance and color
[8]; 35 U/mL
  necropsy findings: very thin hematic abdominal wall that ruptures by itself
[8]; 87.5 U/mL
  necropsy findings: hematic, practically transparent abdominal wall that completely comes off the skin and ruptures by itself when touched
[8]; one mouse, 35 U/mL
  clinical observations half an hour after administration: responded well to handling but exhibited signs of pain
[9]; animal ID 1, 35 U/ml, PCI 13
  Macroscopic observations: All rather hematic. Implants
[9]; animal ID 2, 8.75 U/ml, PCI 10, pump not used
  Macroscopic observations: Pump is not used. Implants do
[9]; animal ID 3, 35 U/ml, PCI 2
  Macroscopic observations: Mesoderm readily separates.
[9]; animal ID 5, 87.5 U/ml, PCI 10
  Macroscopic observations: All hematic. Omentum,
[9]; rat, in vivo
  follow-up of the only animal left alive after treatment: showed no impairments or pain

Source: US20220047687A1, “CHEMICAL SCALPEL” (FUNDACIÓN INSTITUTO DE INVESTIGACIÓN SANITARIA FUNDACIÓN …, priority 2019, published 2022)
